Data: patent US20210214560A1, “COMPOUND, COLORING COMPOSITION, INK, TONER, COLORING RESIN COMPOSITION, AND COMPOSITION FOR DYEING FIBER” (FUJIFILM Corporation, priority 2018, published 2021)

Legend:
Format in all cases: physicochemical
[1] = Evaluation of heat stability (heat resistance), powder heated at 180° C. for 5 minutes; details: oven 180° C. for 5 minutes, A/A0×100, absorbance in tetrahydrofuran
Method: (§1) Heat stability of each compound was evaluated by the following procedure. 10 mg of the powder of each compound was dissolved in 500 mL of tetrahydrofuran, and the absorption spectrum was measured to obtain a reference absorbance (A0). On the other hand, 10 mg of the powder of each compound was weighed in a 4 cm square aluminum cup, placed in an oven, and heated at 180° C. for 5 minutes. The entire amount of the powder after heating was dissolved in 500 mL of tetrahydrofuran, and the absorption spectrum was measured to obtain an absorbance (A) after the heating test. The residual rate of each compound was calculated by the following expression to evaluate heat stability.
Residual rate of compound (%)=A/A0×100

[2] = Evaluation of maximum absorption wavelength (absorption spectrum in tetrahydrofuran solution); details: 1×10^−6 mol/L
[3] = Evaluation 2 of heat stability, powder heated at 200° C. for 5 minutes; details: oven 200° C. for 5 minutes, A2/A0×100, absorbance in tetrahydrofuran
Method: as §1, with “200°” for “180°”, “(A2)” for “(A)”
Residual rate of compound (%)=A2/A0×100

[4] = optical path length 10 mm (Table 7)
[5] = optical path length 10 mm (Table 9)

| SMILES | Residual rate of compound [1] | Absorption maximum wavelength [2, 4] | Molar light absorption coefficient [2, 4] | Residual rate of compound [3] | Absorption maximum wavelength [2, 5] | Molar light absorption coefficient [2, 5] |
| --- | --- | --- | --- | --- | --- | --- |
| CC1(C)Nc2cccc3ccc(N=Nc4ccc(N=Nc5ccccc5Cl)c5ccccc45)c(c23)N1 [(3-1)] | – | – | – | 83% | 612 nm | 36300 L/mol/cm |
| COC(=O)c1ccccc1N=Nc1ccc(N=Nc2ccc3cccc4c3c2NC(C)(C)N4)c2ccccc12 [(3-3)] | – | – | – | 86% | 586 nm | 29200 L/mol/cm |
| CC1(C)Nc2cccc3c(N=Nc4ccc(N=Nc5cccc(F)c5)c5ccccc45)ccc(c23)N1 [Comparative compound A, reference compound] | 63% | – | – | – | – | – |
| CCCCC1(C)Nc2cccc3ccc(N=Nc4ccc(N=Nc5ccccc5Cl)c5ccccc45)c(c23)N1 (centres unmarked) [(3-8)] | – | – | – | 87% | 616 nm | 35800 L/mol/cm |
| CC1(C)Nc2cccc3ccc(N=Nc4ccc(N=Nc5ccccc5C#N)c5ccccc45)c(c23)N1 [(3-4)] | – | – | – | 88% | 638 nm | 30500 L/mol/cm |
| CC1(C)Nc2cccc3c(N=Nc4ccc(N=Nc5ccccc5C(=O)c5ccccc5)c5ccccc45)ccc(c23)N1 [(1-59)] | 82% | 639 nm | 35,700 L · mol^−1 · cm^−1 | – | – | – |
| CC(C)C1(C)Nc2cccc3c(N=Nc4ccc(N=Nc5ccccc5Cl)c5ccccc45)ccc(c23)N1 (centres unmarked) [(1-4)] | 84% | 631 nm | 33,000 L · mol^−1 · cm^−1 | – | – | – |
| CC1(C)Nc2cccc3c(N=Nc4ccc(N=Nc5ccc(F)cc5)c5ccccc45)ccc(c23)N1 [Comparative compound B, reference compound] | 64% | – | – | – | – | – |
| CC1(CC#N)Nc2cccc3c(N=Nc4ccc(N=Nc5ccccc5Cl)c5ccccc45)ccc(c23)N1 (centres unmarked) [(1-61)] | 77% | 604 nm | 34,100 L · mol^−1 · cm^−1 | – | – | – |
| CCCC1(C)Nc2cccc3ccc(N=Nc4ccc(N=Nc5ccccc5Cl)c5ccccc45)c(c23)N1 (centres unmarked) [Compound (3-7)] | – | – | – | 85% | 617 nm | 36200 L/mol/cm |
| CC(C)(C)C1(C)Nc2cccc3c(N=Nc4ccc(N=Nc5ccccc5Cl)c5ccccc45)ccc(c23)N1 (centres unmarked) [(1-8)] | 81% | 631 nm | 35,200 L · mol^−1 · cm^−1 | – | – | – |
| CC1(C)Nc2cccc3ccc(N=Nc4ccc(N=Nc5ccccc5[N+](=O)[O-])c5ccccc45)c(c23)N1 [(3-5)] | – | – | – | 95% | 627 nm | 32100 L/mol/cm |
| CC1(Cc2ccccc2)Nc2cccc3c(N=Nc4ccc(N=Nc5ccccc5Cl)c5ccccc45)ccc(c23)N1 (centres unmarked) [(1-64)] | 73% | 631 nm | 36,800 L · mol^−1 · cm^−1 | – | – | – |
| CC1(C)Nc2cccc3ccc(N=Nc4ccc(N=Nc5ccccc5F)c5ccccc45)c(c23)N1 [(3-2)] | – | – | – | 85% | 608 nm | 36000 L/mol/cm |
| CC1(C)Nc2cccc3c(N=Nc4ccc(N=Nc5ccccc5)c5ccccc45)ccc(c23)N1 [Comparative compound C, reference compound] | – | – | – | 59% | 607 nm | 32000 L/mol/cm |
| CC1(C)Nc2cccc3c(N=Nc4ccc(N=Nc5ccccc5Br)c5ccccc45)ccc(c23)N1 [(1-34)] | 74% | 621 nm | 32,800 L · mol^−1 · cm^−1 | – | – | – |
| CC1CCCCC12Nc1cccc3c(N=Nc4ccc(N=Nc5ccccc5Cl)c5ccccc45)ccc(c13)N2 (centres unmarked) [(1-27)] | 81% | 629 nm | 34,800 L · mol^−1 · cm^−1 | – | – | – |
| CC1(C)Nc2cccc3c(N=Nc4ccc(N=Nc5ccccc5Cl)c5ccccc45)ccc(c23)N1 [(1-1)] | 85% | 624 nm | 34,500 L · mol^−1 · cm^−1 | – | – | – |
| CC1(C)Nc2cccc3c(N=Nc4ccc(N=Nc5ccccc5C#N)c5ccccc45)ccc(c23)N1 [(1-38)] | 92% | 648 nm | 28,900 L · mol^−1 · cm^−1 | – | – | – |

The next lines start with the values.

| Residual rate of compound [1] | Absorption maximum wavelength [2, 4] | Molar light absorption coefficient [2, 4] | Residual rate of compound [3] | Absorption maximum wavelength [2, 5] | Molar light absorption coefficient [2, 5] | SMILES |
| --- | --- | --- | --- | --- | --- | --- |
| 74% | 607 nm | 34,200 L · mol^−1 · cm^−1 | – | – | – | CC1(CC(N)=O)Nc2cccc3c(N=Nc4ccc(N=Nc5ccccc5Cl)c5ccccc45)ccc(c23)N1 (centres unmarked) [(1-62)] |
| 98% | 629 nm | 34,900 L · mol^−1 · cm^−1 | – | – | – | CCCCCC1(C)Nc2cccc3c(N=Nc4ccc(N=Nc5ccccc5C(C)=O)c5ccccc45)ccc(c23)N1 (centres unmarked) [(1-50)] |
| – | – | – | 88% | 615 nm | 34800 L/mol/cm | CCCCCC1(C)Nc2cccc3ccc(N=Nc4ccc(N=Nc5ccccc5Cl)c5ccccc45)c(c23)N1 (centres unmarked) [(3-10)] |
| 84% | 627 nm | 34,000 L · mol^−1 · cm^−1 | – | – | – | CCC1(C)Nc2cccc3c(N=Nc4ccc(N=Nc5ccccc5Cl)c5ccccc45)ccc(c23)N1 (centres unmarked) [(1-2)] |
| 82% | 629 nm | 34,400 L · mol^−1 · cm^−1 | – | – | – | CCCC1(C)Nc2cccc3c(N=Nc4ccc(N=Nc5ccccc5Cl)c5ccccc45)ccc(c23)N1 (centres unmarked) [Compound (1-3)] |
| – | – | – | 96% | 615 nm | 36100 L/mol/cm | CC(=O)c1ccccc1N=Nc1ccc(N=Nc2ccc3cccc4c3c2NC(C)(C)N4)c2ccccc12 [(3-6)] |
| 81% | 629 nm | 35,100 L · mol^−1 · cm^−1 | – | – | – | CCCCC1(C)Nc2cccc3c(N=Nc4ccc(N=Nc5ccccc5Cl)c5ccccc45)ccc(c23)N1 (centres unmarked) [(1-5)] |
| 89% | 622 nm | 33,100 L · mol^−1 · cm^−1 | – | – | – | CC1(CO)Nc2cccc3c(N=Nc4ccc(N=Nc5ccccc5Cl)c5ccccc45)ccc(c23)N1 (centres unmarked) [(1-17)] |
| 84% | 623 nm | 33,800 L · mol^−1 · cm^−1 | – | – | – | CCCCC(CC)C(=O)OCC1(C)Nc2cccc3c(N=Nc4ccc(N=Nc5ccccc5Cl)c5ccccc45)ccc(c23)N1 (centres unmarked) [(1-20)] |
| 90% | 619 nm | 35,000 L · mol^−1 · cm^−1 | – | – | – | CC1(C)Nc2cccc3c(N=Nc4ccc(N=Nc5ccccc5F)c5ccccc45)ccc(c23)N1 [(1-31)] |
| 84% | 629 nm | 35,900 L · mol^−1 · cm^−1 | – | – | – | CCCCCC1(C)Nc2cccc3c(N=Nc4ccc(N=Nc5ccccc5Cl)c5ccccc45)ccc(c23)N1 (centres unmarked) [(1-9)] |
| 84% | 623 nm | 33,900 L · mol^−1 · cm^−1 | – | – | – | CC(C)NC(=O)OCC1(C)Nc2cccc3c(N=Nc4ccc(N=Nc5ccccc5Cl)c5ccccc45)ccc(c23)N1 (centres unmarked) [(1-21)] |
| 80% | 599 nm | 26,600 L · mol^−1 · cm^−1 | – | – | – | COC(=O)c1ccccc1N=Nc1ccc(N=Nc2ccc3c4c(cccc24)NC(C)(C)N3)c2ccccc12 [(1-40)] |
